Measured values from publication PMC3574224, “Na^+ Regulation in the Malaria Parasite Plasmodiumfalciparum Involves the Cation ATPase PfATP4 and Is a Target of the Spiroindolone Antimalarials” (Cell Host & Microbe, 2013).

Assays:
[1] = tested on: P. falciparum 3D7 trophozoites; experiment: microbe, parasite or virus in culture; type: cell-based, Plasmodium falciparum; conditions: for Rate of increase of [Na^+]i at maximally effective concentrations: maximally effective concentration; for IC50: Plasmodium falciparum, concentration causing [Na^+]i to increase from resting value at half the maximal rate, from fitted curves, read-out: IC50 for disruption of Na^+ regulation
Experimental: P. falciparum strains 3D7, Dd2, NITD609-R^Dd2 clone #2, Dd2^attB, and Dd2^attB CAM I398F/P990R were cultured under shaking conditions as described elsewhere ([Allen and Kirk, 2010]). Cultures were synchronized 24 hr before experimentation using 5% w/v sorbitol ([Lambros and Vanderberg, 1979]). All experiments were conducted on mature trophozoite-stage parasites (36–40 hr postinvasion) functionally isolated from their host erythrocytes by permeabilization of the erythrocyte and parasitophorous vacuole membranes by brief exposure to saponin (0.05% w/v) as described previously ([Spillman et al., 2008]).
(§1) The [Na^+]i of saponin-isolated parasites was measured at 37°C using the Na^+-sensitive dye SBFI (Molecular Probes, Invitrogen) in conjunction with a PerkinElmer LS 50B Fluorescence Spectrometer fitted with a Dual Excitation Fast Filter. Saponin-isolated parasites were loaded with SBFI by suspension (at 1.40–1.80 × 10^8 cells/mL) for 20 min at 37°C in bicarbonate-free RPMI1640 supplemented with 20 mM D-glucose, 0.2 mM hypoxanthine, 25 mM HEPES, and 25 mg/L gentamycin sulfate (pH 7.10), to which SBFI-acetoxymethyl ester (5.5 μM) and Pluronic F-127 (0.01% w/v) were added. The dye-loaded cells were washed twice (12,000 × g, 0.5 min) in bicarbonate-free RPMI then incubated for a further 20 min at 37°C to allow for complete de-esterification of the dye before being resuspended at a final cell concentration of 1.5–2.5 × 10^7 cells/mL in standard saline. The dye-loaded cells were excited at 340 nm and 380 nm with fluorescence recorded at 490 nm. Calibration of the relationship between the 340/380 nm fluorescence ratio and [Na^+]i (see Figures S1A–S1C) was carried out as described previously ([Diarra et al., 2001]; [Harootunian et al., 1989]).
The initial Na^+ influx rate (at t = 0) is a × Δ[Na^+]i^max.
(§2) Dose-response curves were obtained using the expression y = y^min + y^max/(1 + [C/IC50]^b), where y is the parameter being measured (parasite proliferation, Na^+ influx, or ATPase activity), y^min is the minimum value of y, y^max is the maximum value of y, C is the concentration of the moiety that was varied in the experiment, IC50 is the concentration at which y was reduced to 50% of y^max, and b is a fitted constant.

[2] = tested on: P. falciparum trophozoites; experiment: Cytosolic pH (pHi) in BCECF-loaded saponin-isolated parasites; type: cell-based, Plasmodium falciparum
Experimental: pHi of saponin-isolated parasites was measured using the pH-sensitive indicator BCECF (Molecular Probes, Invitrogen) as described previously ([Saliba and Kirk, 1999]). […] Critical experiments performed using SBFI-loaded parasites were repeated with parasites loaded with BCECF.

P. falciparum parasites = experiment: Parasite proliferation, [^3H]hypoxanthine incorporation assay, 48 hr; type: cell-based; conditions: Plasmodium falciparum; mean ± SEM, number of independent experiments in parentheses; read-out: IC50 for inhibition of parasite proliferation
Experimental: Parasite growth assays were performed in 96-well plates over 48 hr (commencing at the ring stage) using a standard [^3H]hypoxanthine incorporation assay ([Desjardins et al., 1979]).
as §2

[3] = tested on: P. falciparum trophozoites; experiment: Recovery of [Na^+]i from an imposed intracellular Na^+ load (K^+ removal and restoration); type: cell-based, Plasmodium falciparum; conditions: added with 10 mM KCl
Experimental: The mechanism responsible for the increase in [Na^+]i seen upon removal of extracellular K^+ was not investigated further here. However, the phenomenon does provide a useful means of imposing an intracellular Na^+ load on the parasite and of testing the effect of inhibitors on the net efflux of Na^+ from the Na^+-loaded parasite.
as §1, with “1989]). Several inhibitors used in this study caused inner filter effects ([Gu and Kenny, 2009]; [Srinivas and Mutharasan, 1987]); in these cases calibration curves were generated with the inhibitors present.” for “1989]).”
The rate of efflux of Na^+ from the cells, following an imposed intracellular Na^+ load, was estimated by fitting the following function to the [Na^+]i traces: [Na^+]i = Δ[Na^+]i^max × e^-at + [Na^+]i^final, where Δ[Na^+]i^max is the increase in [Na^+]i above the normal resting value (following the imposition of an intracellular Na^+-load), t is the time after the commencement of efflux (on addition of extracellular K^+), a is a fitted constant, and [Na^+]i^final is the final value of [Na^+]i. The initial Na^+ efflux rate (at t = 0) is a × Δ[Na^+]i^max, and the half-time to complete recovery (t1/2) is ln(0.5)/-a.

[4] = tested on: P. falciparum trophozoites; experiment: Cytosolic [Ca^2+]i in fura-2-loaded saponin-isolated parasites; type: cell-based, Plasmodium falciparum; conditions: 2 μM; medium containing 1 μM Ca^2+
Experimental: [Ca^2+]i was measured with the Ca^2+-sensitive indicator fura-2 (Molecular Probes, Invitrogen) using a loading protocol identical to that described for SBFI. Calibration was performed as described previously ([Alleva and Kirk, 2001]).

[5] = 10 μM, on the timescale of the experiments

## [Na+].[Na+].[Na+].[O]=[V]([O-])([O-])[O-] [Sodium orthovanadate, reference compound]
[1]; 100 μM
  Effect on [Na^+]i: prolonged time-dependent increase
[1]; 500 μM, n = 4
  Rate of increase of [Na^+]i: 0.13 ± 0.03 mM/s
[2]; 100 μM, Na^+-dependent, increase from 7.28 ± 0.03, n = 6, p = 0.024
  Cytosolic pH (pHi) after addition: 7.36 ± 0.03

## C[C@@H]1CCc2c([nH]c3ccccc23)[C@]2(N1)C(=O)Nc1ccc(Br)cc12 [NITD138]
P. falciparum parasites
  IC50: 2.3 ± 0.2 µM
[1]; 50 nM, 3D7, standard saline
  Effect on resting [Na^+]i: little effect
[1]
  Rate of increase of [Na^+]i at maximally effective concentrations: did not reach the maximum value at the highest concentration tested

## CCN(c1nc(N)c(C(=O)NC(=N)N)nc1Cl)C(C)C [EIPA, ethylisopropylamiloride, reference compound]
[1]; 20 μM
  Effect on resting [Na^+]i: Neither the Na^+/H^+ exchanger inhibitor ethylisopropylamiloride (EIPA; 20 μM) nor the Na^+/K^+-ATPase inhibitor ouabain (2 mM) had a significant effect
[3]; 20 μM
  Effect on recovery of [Na^+]i after Na^+ load: unaffected

## C[C@@H]1Cc2c([nH]c3cc(F)c(F)cc23)[C@]2(N1)C(=O)Nc1ccc(Cl)cc12 [NITD247]
P. falciparum parasites
  IC50: 0.0416 ± 0.0058 µM
[1]; 50 nM, 3D7, standard saline
  Effect on resting [Na^+]i: little effect
[1]; 3D7, standard saline
  IC50: 0.407 ± 0.117 µM
[1]
  Rate of increase of [Na^+]i at maximally effective concentrations: 0.125 ± 0.013 mM/s

## CCN(CC)CCCC(C)Nc1ccnc2cc(Cl)ccc12 (stereo not shown) [chloroquine, reference compound]
[1]; [5]
  Effect on [Na^+]i: no effect

## C/C=C(/C)C(=O)O[C@H]1C(C)=C2[C@H]([C@@H]1OC(=O)CCCCCCC)[C@@](C)(OC(C)=O)C[C@H](OC(=O)CCC)[C@@]1(O)[C@H]2OC(=O)[C@@]1(C)O [thapsigargin, reference compound]
[1]; 2 μM
  Effect on [Na^+]i: little effect

## NS(=O)(=O)c1cc(C(=O)O)c(NCc2ccco2)cc1Cl [Furosemide, reference compound]
[3]; 100 μM
  Effect on recovery of [Na^+]i after Na^+ load: slowed

## C/C=C/[C@H]1O[C@@](O)([C@@H](C)[C@H](O)[C@H](C)[C@H]2OC(=O)/C(OC)=C/C(C)=C/[C@@H](C)[C@@H](O)[C@@H](CC)[C@@H](O)[C@H](C)C/C(C)=C/C=C/[C@@H]2OC)C[C@@H](O[C@H]2C[C@@H](O)[C@H](OC(N)=O)[C@@H](C)O2)[C@@H]1C [concanamycin A, reference compound]
[2]; 75 nM, pHi decreasing to below its normal resting value
  Effect on pHi of parasites after NITD246- or orthovanadate-induced alkalinisation: immediate reversal of the alkalinisation

## Gramicidin [reference compound]
[1]; 5 μM, [Na^+]o 125 mM
  Effect on [Na^+]i: rapid increase in [Na^+]i

## CC(=O)C1=C(O)[C@@H]2[C@H]3c4c[nH]c5cccc(c45)C[C@H]3C(C)(C)N2C1=O [CPA, cyclopiazonic acid, reference compound]
[1]; 40 μM
  Effect on [Na^+]i: caused [Na^+]i to increase
[4]
  Effect on [Ca^2+]i: transient increase in [Ca^2+]i

## C[C@@H]1O[C@@H](O[C@H]2C[C@@H](O)[C@]3(CO)[C@H]4[C@H](O)C[C@]5(C)[C@@H](C6=CC(=O)OC6)CC[C@]5(O)[C@@H]4CC[C@]3(O)C2)[C@H](O)[C@H](O)[C@H]1O [ouabain, reference compound]
[1]; 2 mM
  Effect on resting [Na^+]i: nor the Na^+/K^+-ATPase inhibitor ouabain (2 mM) had a significant effect

## C[C@@H]1CC[C@H]2[C@@H](C)C(=O)O[C@@H]3O[C@@]4(C)CC[C@@H]1[C@]32OO4 [artemisinin, reference compound]
[1]; [5]
  Effect on [Na^+]i: no effect

## C[C@H]1CCc2c([nH]c3ccccc23)[C@@]2(N1)C(=O)Nc1ccc(Br)cc12 [NITD139]
P. falciparum parasites
  IC50: 0.004 ± 0.0009 µM
[1]; 50 nM, 3D7, standard saline
  Effect on resting [Na^+]i: immediate rapid increase in [Na^+]i
[1]; 3D7, standard saline
  IC50: 0.0166 ± 0.0057 µM
[1]
  Rate of increase of [Na^+]i at maximally effective concentrations: 0.098 ± 0.007 mM/s
